Test results reported in patent publication US5656603A (Loyola University of Chicago, priority 1995, dated 1997).
“And” between values parts separate entries of the source, which are not always exact repeats. Equal entries are not always repeated. “Also recorded” adds a separate entry of the source.

Experiments:
[1] = isolated perfused rat lung, modified Krebs buffer; conditions: Male Sprague Dawley rats, 35° C.
[2] = test system: [3H]-bradykinin degradation in the isolated perfused rat lung; assay: [3H]-bradykinin degradation in the isolated perfused rat lung (HPLC of perfusate)
Experimental: Using the procedure described herein, under Experimental Procedures it was determined that aminopeptidase P contributed to Bk degradation in the mammalian lung. In that procedure, [^3 H]-Bk (labelled in Pro^2 and Pro^3) was perfused through the isolated lung in the presence or absence of various peptidase inhibitors. The perfusate was then analyzed for radiolabelled products by HPLC. […] Most of the radioactivity (an average of 79%) was in the form of [^3 H]-Pro-Pro [Bk(2-3)] with the remainder being [^3 H]-Bk(1-5). It was hypothesized that pulmonary vascular aminopeptidase P was cleaving the Arg'-Pro^2 bond followed by rapid removal of Pro-Pro by dipeptidylpeptidase IV (DPP IV) (12). Simultaneously, angiotensin converting enzyme (ACE) was sequentially removing Phe-Arg and Ser-Pro from the C-terminus (13). […] However, most of the radioactivity remained in the Pro-Pro peak indicating substantial cleavage of Bk at the N-terminal end.
Perfusion of the Isolated Rat Lung--Male Sprague Dawley rats, weighing 300-500 grams, were anesthetized with sodium pentobarbital (50-75 mg/kg) given by intraperitoneal injection. The trachea was cannulated and the lungs ventilated with air at 70 cycles per minute (Harvard Small Animal Ventilator) at a pressure of 70 mm H2 O. The heart and lungs were exposed via midsternal incision and 1000 units of heparin were administered intracardially. Polyethylene cannulae were secured into the pulmonary artery and the left ventricle. A modified Krebs buffer (118.5 mM NaCl, 4.7 mM KCl, 1.1 mM KH2 PO4, 1.1 mM MgSO4, 2.5 mM CaCl2, 19.6 mM NaHCO3, 5.6 mM dextrose), which was kept in a 50° C. water bath and aerated with 95% O2 -5% CO2 to pH 7.35, was perfused into the pulmonary artery at 35° C. and 2.6 ml/min (LKB Microperplex peristaltic pump). The buffer was circulated through the isolated lung in situ until the effluent was free of blood. The surgical field was maintained at 37° .C with a heat lamp throughout the procedure. Experiments were conducted by introducing [^3 H]-Bk in the presence or absence of test peptidase inhibitors into the pulmonary circulation via the pulmonary artery and then collecting perfusion effluent from the left ventricular cannula. […] The lung was then perfused with 1 μCi [^3 H]-Bk in 1 ml of the inhibitor solution (giving 16 nM Bk) followed by inhibitor solution alone. Effluent was collected in tubes (0.5 min/fraction) containing 150 μl of 2% TFA. For each lung preparation, 5-6 samples were perfused over a period of about one hour. Control perfusions of [^3 H]-Bk alone were always carried out before perfusions of samples containing ramiprilat because of the slow reversibility of inhibition of ACE by this compound. […] The effects of the latter two inhibitors were reversible.
Separation and Identification of Bradykinin Metabolites--The fractions which were collected from each perfusion sample run were counted for radioactivity, and the fraction having the highest radioactive counts was prepared for HPLC by filtration through a Centricon-10 microconcentrator (Amicon). An aliquot of the filtrate containing 25000 dpm (approx. 25 μl) was spiked with a cocktail of unlabelled Bk fragments (3 μl) and then subjected to HPLC using a Waters Radial Compression Separation System with a 5μ NOVA PAK C18 Radial Pak Cartridge. The column was developed at a flow rate of 1 ml/min with a 60 min linear gradient from 100% Solvent A (0.1% TFA in water) to 75% Solvent A: 25% Solvent B (0.08% TFA in acetonitrile) using a Spectra Physics 8700XR Solvent Delivery System. The column effluent was simultaneously monitored for absorbance at 206 nm (LKB Uvicord S) and for radioactivity (Radiomatic Flo-One HS Radioactive Flow Detector using Ultima-Flo M scintillation fluid from Packard, Meriden, Conn.). […] Radioactive peaks were identified by comparison of the retention times to those of the unlabelled standards. […]

[3] = biological target: T1, purified bovine lung membrane-bound aminopeptidase P (Bos taurus, UniProt E1B735); assay: Aminopeptidase P inhibition, release of arginine from Arg-Pro-Pro (fluorescent assay); assay type: biochemical; conditions: bovine lung aminopeptidase P; cleavage of 0.5 μM Arg-Pro-Pro in 0.1M Hepes, pH 8.0 at 37° C.
T1 construct: from tissue; host or cells: bovine lung
T1 sequence (E1B735 22-673): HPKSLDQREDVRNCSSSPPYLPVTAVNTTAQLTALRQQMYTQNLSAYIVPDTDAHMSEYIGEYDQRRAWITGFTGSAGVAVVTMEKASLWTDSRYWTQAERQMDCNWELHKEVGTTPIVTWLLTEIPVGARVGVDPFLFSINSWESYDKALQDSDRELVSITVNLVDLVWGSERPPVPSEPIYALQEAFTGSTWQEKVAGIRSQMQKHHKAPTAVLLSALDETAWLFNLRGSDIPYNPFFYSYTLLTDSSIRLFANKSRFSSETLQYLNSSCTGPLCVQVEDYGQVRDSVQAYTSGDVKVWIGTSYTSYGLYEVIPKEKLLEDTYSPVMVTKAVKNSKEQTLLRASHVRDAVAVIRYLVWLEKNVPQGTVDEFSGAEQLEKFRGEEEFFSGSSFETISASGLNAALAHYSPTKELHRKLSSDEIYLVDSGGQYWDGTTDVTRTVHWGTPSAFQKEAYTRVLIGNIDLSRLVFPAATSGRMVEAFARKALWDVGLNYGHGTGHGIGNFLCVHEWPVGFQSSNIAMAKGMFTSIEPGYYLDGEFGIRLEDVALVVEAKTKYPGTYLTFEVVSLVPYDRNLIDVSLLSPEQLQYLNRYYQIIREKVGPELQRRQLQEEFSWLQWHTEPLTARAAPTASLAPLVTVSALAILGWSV
Experimental: The IC50 of the compound of the present invention in relation to aminopeptidase P was also determined. […] The specificity of the compound of the present invention for other aminopeptidases was similarly determined as described in the Experimental Procedures herein. […] The following enzymes had IC50 values>800 μM: aminopeptidase A, angiotensin converting enzyme, dipeptidyl-peptidase I-like activity, bestatin-sensitive/amastatin-insensitive membrane dipeptidase (29), microsomal dipeptidase, endopeptidase 24.11, endopeptidase 24.15, and prolyl oligopeptidase.
(§1) Enzymes--Membrane-bound aminopeptidase P was purified to homogeneity from bovine lung (14) and from rat lung. Partially purified membrane-bound aminopeptidase P from human lung was obtained by treatment of lung microsomes with phosphatidylinositol-specific phospholipase C (B. thuringiensis) (ICN, Costa Mesa, Calif.) followed by centrifugation as described previously (14). Membrane dipeptidase was purified from rat lung microsomes (manuscript in preparation). Recombinant E. coli aminopeptidase P (22) and purified lamb kidney prolyl oligopeptidase (23) were generally supplied by Dr. Tadashi Yoshimoto (Nagasaki University). Purified porcine kidney prolidase and purified porcine kidney aminopeptidase M was obtained from Sigma (St. Louis, Mo.).
(§2) Enzyme Kinetics--Aminopeptidase P activity was determined by measuring the release of arginine from Arg-Pro-Pro by a fluorescent assay described previously (14). […] Each mixture was run in duplicate. Aliquots were removed from each incubation mixture at various times and assayed for the amount of arginine present to determine the reaction velocity. In general, reaction velocities were calculated from data representing less than 20% cleavage of substrate. Ki and Ki ' (=αKi) were determined from plots of 1/v versus concentration of inhibitor "i" (26) and S/v versus concentration of inhibitor "i" (27), respectively. These parameters were also determined from the slope replot and 1/v-intercept replot, respectively, of the 1/v versus 1/S plot (28). See e.g., FIG. 1B. The values from the two treatments of the data were averaged for each experiment. Experiments for each enzyme preparation were performed twice and the results averaged.

[4] = biological target: T2, partially purified human lung membrane-bound aminopeptidase P (Homo sapiens, UniProt O43895); assay: as above; assay type: biochemical; conditions: human lung aminopeptidase P; for IC50: cleavage of 0.5 μM Arg-Pro-Pro in 0.1M Hepes, pH 8.0 at 37° C.
T2 construct: from tissue; host or cells: human lung microsomes
T2 sequence (O43895 22-674): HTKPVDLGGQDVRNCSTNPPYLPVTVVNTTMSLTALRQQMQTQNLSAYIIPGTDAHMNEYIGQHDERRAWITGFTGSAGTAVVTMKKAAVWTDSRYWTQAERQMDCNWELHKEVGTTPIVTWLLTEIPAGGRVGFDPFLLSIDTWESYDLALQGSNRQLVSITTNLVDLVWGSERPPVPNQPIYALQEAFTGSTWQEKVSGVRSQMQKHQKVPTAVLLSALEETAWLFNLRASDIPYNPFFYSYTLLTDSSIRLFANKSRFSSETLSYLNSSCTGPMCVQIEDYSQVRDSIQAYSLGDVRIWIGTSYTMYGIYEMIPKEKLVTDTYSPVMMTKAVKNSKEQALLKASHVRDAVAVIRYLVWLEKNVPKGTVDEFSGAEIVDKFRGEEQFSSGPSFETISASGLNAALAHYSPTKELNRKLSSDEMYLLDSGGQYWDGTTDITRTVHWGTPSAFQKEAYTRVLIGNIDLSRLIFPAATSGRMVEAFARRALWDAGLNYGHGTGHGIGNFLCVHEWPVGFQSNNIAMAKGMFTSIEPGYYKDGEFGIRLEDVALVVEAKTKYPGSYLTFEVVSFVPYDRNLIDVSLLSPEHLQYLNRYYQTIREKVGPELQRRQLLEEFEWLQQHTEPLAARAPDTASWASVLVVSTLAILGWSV
Experimental: The IC50 of the compound of the present invention in relation to aminopeptidase P was also determined. […] The specificity of the compound of the present invention for other aminopeptidases was similarly determined as described in the Experimental Procedures herein.
as §1
as §2, with “See e.g., FIG. 1B.” left out

[5] = test system: membrane-bound aminopeptidase P; assay: partially purified human lung membrane-bound aminopeptidase P in 0.1 M Hepes, pH 8.0; conditions: 39° C.

Compound: [2,3-Prolyl-3,4-^3 H(N)]-bradykinin
- cleaved bond [1]: rapid removal of Pro-Pro by dipeptidylpeptidase IV (DPP IV); also recorded: Pro7-Phe8; also recorded: removing Ser-Pro from the C-terminus (after Phe-Arg); also recorded: Arg1-Pro2, major; also recorded: [^3 H]-Pro-Pro arose by DPP IV cleavage of [^3 H]-Bk(2-9)
- fragment found [1]: [^3 H]-Bk(1-5), major; also recorded: [^3 H]-Pro-Pro, minor
- not cleaved [1]: no [^3 H]-Bk(1-7) was observed in the perfusate

Compound: C[C@H](N[C@@H](CCc1ccccc1)C(=O)O)C(=O)N1[C@H](C(=O)O)C[C@@H]2CCC[C@@H]21 [ramiprilat]
- percentage of radioactivity eluting from the lung as intact [3H]-Bk ([2]; ramiprilat (0.5 μM) alone in the perfusion medium, mean ± SEM, three rats): 22±6% and 22%
- fold increase of intact [3H]-Bk eluting from the lung ([2]; ramiprilat alone versus no inhibitor (unmeasurable levels)): ≥ 22 fold

Compound: CC(C)C[C@H](N)[C@@H](O)C(=O)N1CCC[C@H]1C(=O)N1CCC[C@H]1C(=O)N[C@@H](C)C(N)=O [(2R,3S), N-[(2R,3S)-3-amino-2-hydroxy-5-methylhexanoyl]-L-prolyl-L-prolyl-L-alaninamide]
- IC50 [3]: 2100 nM
- IC50 [4]: 430 nM

Compound: Arg-Pro-Pro
- cleaved bond [5]: Arg-Pro

Compound: CC(C)C[C@@H](N)[C@H](O)C(=O)N1CCC[C@H]1C(=O)N1CCC[C@H]1C(=O)N[C@@H](C)C(N)=O [(2S,3R), N-[(2S,3R)-3-amino-2-hydroxy-5-methylhexanoyl]-L-prolyl-L-prolyl-L-alaninamide]
- IC50 [3]: 4500 nM
- IC50 [4]: 230 nM
- IC50 relative to the IC50 of apstatin ([4]; versus apstatin […]): approximately ten-fold

Compound: CC(C)C[C@@H](N)[C@H](O)C(=O)N[C@H](C(=O)N[C@H](C(=O)N[C@@H](CC(=O)O)C(=O)O)C(C)C)C(C)C [amastatin, [(2S, 3R)-3-amino-2-hydroxy-5-methylhexanoyl]-Val-Val-Asp]
- effect on the pattern of metabolites ([2]; 100 μM along with ramiprilat in the perfusion medium (data not shown)): no significant effect

Compound: CC[C@H](C)[C@H](N)C(=O)N1CCC[C@H]1C(=O)N[C@H](C(=O)O)[C@@H](C)CC [diprotin A, Ile-Pro-Ile]
- form of radioactivity eluted from the lung ([2]; diprotin A present along with ramiprilat (data not shown)): most of the radioactivity eluted from the lung in the form of [^3 H]-Bk(2-9)
